Experimental data: article PMC8058733, “A pain killer without analgesic tolerance designed by co-targeting PSD-95-nNOS interaction and α2-containning GABAARs” (Theranostics, 2021)

Assays:
[1] = system: SNL-induced mechanical hyperalgesia; assay: SNL-induced mechanical hyperalgesia, von Frey; assay type: in vivo, mice
Experimental: Neuropathic pain was induced by segmental spinal nerve ligation (SNL). Animals were anesthetized with isoflurane. After the loss of righting reflex, the animal was fixed in the prone position. The SNL model was prepared as described previously: a median skin incision with about 3-5 cm length in L4-S2 level of the mouse back was made, the muscles next to the vertebrae till the sixth lumbar protruding were separated, the L5/L6 joint protruding on the right side was exposed and excised, and L6 processus transversus was partially split so that the L4-L6 spinal nerves on the right side were exposed. L5 nerve was gently isolated and tightly ligated with 5-0 silk thread. The wound was closed with 4-0 silk thread suture and covered with iodine solution. After nerve ligation, animals with signs of paw clonus or autotomy were excluded from further experiments.
For mice, the threshold for 50% PWT response to mechanical stimulus was quantified by assessing the paw withdrawal threshold using von Frey filaments (Touch-Test TM Sensory Evaluator, North coast Medical, Inc.). Mice were placed individually in a plastic cage (4.5 × 5 × 11 cm) with a wire mesh bottom which allowed full access to the paws. Behavioral accommodation was allowed for 20-30 min until cage exploration and major grooming activities ceased. Mechanical threshold was measured by applying a von Frey filament to the ventral surface of the right hind paw until a positive sign of pain behavior was elicited. The paradigm for assessing the threshold was as follows. Von Frey filaments with logarithmically incremental stiffness (0.02-2 g) were applied serially to the paw by the up-down method. The filaments were presented, in ascending order of strength, perpendicular to the plantar surface with sufficient force to causes light bending against the paw and held for 4s. A positive response was noted if the paw was sharply withdrawn. Flinching immediately upon removal of the hair was also considered a positive response. The 2-g filament was selected as the upper limit cut-off for testing. If there was no response at 2-g filament, animals were assigned this cut-off value. The pattern of positive and negative withdrawal responses was converted to 50% threshold according to the formula: 50% PWT = 10 log (X) + κδ. X = value (in log unit) of the final von Frey hair used; κ is correction factors based on the pattern of responses from the calibration table; δ = mean difference in log units between stimuli (here, 0.224).

spatial memory = assay: Morris water maze task; assay type: in vivo; settings: rats; ZL006-05 90 mg/kg/d, i.g.; MK801 0.25 mg/kg/d, i.v.; 6 days
Experimental: The Morris water maze task was used to exam spatial cognitive performance of rats. A circular swimming pool (Jiliang Neuroscience Inc.) measuring 180 cm in diameter and 48 cm in height was filled with water to a depth of 26 cm at 24 ± 2 °C. Four starting points around the edge of the pool were designated as N, E, S, and W, which divided the pool into four quadrants. A platform, 10 cm in diameter, was located in a constant position in the middle of one quadrant. To render it invisible to the rats, platform was submerged 2.0 cm below the surface of the water. The task for the rats was to escape from the water by locating the hidden platform. Two days before training, the animals were habituated to swimming for 60 s in the pool without a platform. In training session, rats were trained to escape from the water by locating the platform which was above the water with a red flag on it. Then, one block of four trails was given for 6 consecutive days, and on each day, two groups of rats were administrated with MK801 (0.25 mg/kg, i.v.) or vehicle (6 mL/kg, i.v.) 30 minutes before the first trail. Meanwhile, another two groups of rats were treated with ZL006-05 (90 mg/kg, i.g.) or vehicle (6 mL/kg, i.g.) 1 hour before the first trail. […] During retention, the number of crossings of the platform location and the time spent in the target quadrant were measured.

[2] = Identification of metabolites of ZL006-05 in plasma (UPLC-UV/Q-TOF MS); assay type: in vivo; settings: rats
Experimental: ZL006-05 was given to rats by intravenous injection (i.v., 6.0 mg/kg) and oral administration (i.g., 90 mg/kg) respectively. Plasma samples were collected at pre-dose and 0.25, 0.5, 2 and 4 h for i.v. and 0.5, 1, 2 and 4 h for i.g after a single dose administration. Pre-dose plasma samples were used as control blank. After vortex and centrifugation, supernatant was removed and dried out by nitrogen blowing instrument at 40 °C and then re-dissolved with 100 μL water/ACN (50/50, v/v). The resulting samples were injected and analyzed by UPLC-UV/Q-TOF MS. Metabolites were separated with ACQUITY UPLC HSS T3 C18 column (2.1 × 100 mm I.D., 1.7 µm I.D.) with column temperature at 45 °C and flow rate at 0.4 mL/min, detected by UV (200-600 nm). Masslynx V4.1 of Waters was used for data acquiring, MetaboLynx XS with Masslynx V4.1 was used for data analysis.
Supplementary Figure 3. Proposed metabolic pathways of ZL006-05 in rats. […]
of ZL006-05, including M2-2 (glucuronide conjunction), M3-2 (Mono-oxidation & […]
parent drug were found in plasma after oral administration of ZL006-05, including M1 (Oxidation by de-H2), M2-1 and M2-2 (glucuronide conjunction), M3-1 and M3-2 (Mono-oxidation & glucuronide conjunction). Based on the chromatogram of UPLC- […]
oral dosing, the proposed metabolic pathways of ZL006-05 in blood were summarized. i.v.: intravenous injection; i.g.: oral administration.
(1 picture or pasted object on this page, not shown here)

CC1(C)C2CCC1(C)C(OC(=O)c1ccc(NCc3cc(Cl)cc(Cl)c3O)cc1O)C2 (centres unmarked) [ZL006-05]
Analgesic tolerance, mechanical hyperalgesia, 28 days treatment ([1]; SNL mice, ZL006-05 60 mg/kg/d, i.g., × 28 d, pregabalin 30 mg/kg/d): maintained its antinociceptive effect during 28 days treatment | Analgesic tolerance, mechanical hyperalgesia ([1]; SNL nNOS-/- and WT mice, ZL006-05 60 mg/kg/d, i.g., 11 d): caused a remarkable analgesic tolerance in nNOS^-/- mice but not in WT mice | Effect on SNL-induced mechanical hyperalgesia ([1]; mice, ZL006-05 i.g., single administration, 0-12 h): reduced SNL-induced mechanical hyperalgesia | Spatial memory in the Morris water maze task (spatial memory): but not ZL006-05 caused significantly impaired spatial memory | Metabolites found in plasma ([2]; after intravenous injection: M2-2, M3-2, M4): Three metabolites except parent drug | Main metabolite in plasma (UPLC-UV) ([2]; after iv dosing, 6.0 mg/kg): parent drug (M0) | Metabolites found in plasma ([2]; after oral administration: M1, M2-1, M2-2, M3-1, M3-2): five metabolites | Main metabolite in plasma (UPLC-UV) ([2]; after oral dosing, 90 mg/kg): parent drug (M0) and glucuronide conjunction (M2-2)
